From the supplement of paper PMC10883282
± gives the standard deviation of the averaged measurements.

What was measured:
Test in all cases: relative viability vs DMSO control (72 h) (fraction); higher = more viable cells
A204 = tested on: A204
Method in brief: (§1)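 A 5 µM positive control and 0.1% DMSO vehicle ran alongside sarcoma cell lines seeded in 384-well plates to reach 80–90% confluence. Serially diluted compound, 2.5 µl from source plates of 10 mM to 0.0002 mM, was added after 24 h, and the plates were held 72 h at 37 °C, 5% CO2. Relative viability was worked out from ATPLite readings as percent growth averaged over up to triplicate wells. The values were rescaled so that 1 is full and 0 is none.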

G401 = tested on: G401
Method in brief: as §1

HS729 = tested on: HS729
Method in brief: as §1

HT1080 = tested on: HT1080
Method in brief: as §1

KHOS-NP = tested on: KHOS-NP
Method in brief: as §1

RD-ES = tested on: RD-ES
Method in brief: as §1

SK-ES-1 = tested on: SK-ES-1
Method in brief: as §1

SK-LMS-1 = tested on: SK-LMS-1
Method in brief: as §1

SW684 = tested on: SW684
Method in brief: as §1

SW872 = tested on: SW872
Method in brief: as §1

SW982 = tested on: SW982
Method in brief: as §1

VA-ES-BJ = tested on: VA-ES-BJ
Method in brief: as §1

COCCNc1cc(NC(=O)N2CCCc3cc(CN4CCN(C)CC4=O)c(C=O)nc32)ncc1C#N [Roblitinib]
Conditions	relative viability
A204, 0.00017 µM	1.05 ± 0.011
A204, 0.00051 µM	1.09 ± 0.059
A204, 0.00152 µM	1.03 ± 0.044
A204, 0.00457 µM	1.08 ± 0.018
A204, 0.01372 µM	1.06 ± 0.027
A204, 0.04115 µM	1.07 ± 0.056
A204, 0.1235 µM	1.04 ± 0.057
A204, 0.3704 µM	1.02 ± 0.045
A204, 1.111 µM	1.03 ± 0.061
A204, 3.333 µM	0.922 ± 0.05
A204, 10 µM	0.812 ± 0.014
G401, 0.00017 µM	0.974 ± 0.018
G401, 0.00051 µM	0.955 ± 0.034
G401, 0.00152 µM	0.929 ± 0.012
G401, 0.00457 µM	0.9122 ± 0.0064
G401, 0.01372 µM	0.943 ± 0.012
G401, 0.04115 µM	0.93 ± 0.036
G401, 0.1235 µM	0.96 ± 0.047
G401, 0.3704 µM	0.967 ± 0.069
G401, 1.111 µM	0.943 ± 0.033
G401, 3.333 µM	0.935 ± 0.038
G401, 10 µM	0.8671 ± 0.0083
HS729, 0.00017 µM	0.894 ± 0.071
HS729, 0.00051 µM	0.906 ± 0.08
HS729, 0.00152 µM	0.906 ± 0.061
HS729, 0.00457 µM	0.894 ± 0.057
HS729, 0.01372 µM	0.891 ± 0.031
HS729, 0.04115 µM	0.876 ± 0.068
HS729, 0.1235 µM	0.858 ± 0.05
HS729, 0.3704 µM	0.858 ± 0.016
HS729, 1.111 µM	0.849 ± 0.042
HS729, 3.333 µM	0.892 ± 0.046
HS729, 10 µM	0.914 ± 0.047
HT1080, 0.00017 µM	1 ± 0.018
HT1080, 0.00051 µM	1.04 ± 0.014
HT1080, 0.00152 µM	0.971 ± 0.013
HT1080, 0.00457 µM	0.9973 ± 0.0052
HT1080, 0.01372 µM	0.951 ± 0.034
HT1080, 0.04115 µM	1.04 ± 0.04
HT1080, 0.1235 µM	1.05 ± 0.072
HT1080, 0.3704 µM	1.07 ± 0.033
HT1080, 1.111 µM	0.952 ± 0.022
HT1080, 3.333 µM	1.029 ± 0.0021
HT1080, 10 µM	0.997 ± 0.052
KHOS-NP, 0.00017 µM	1.05 ± 0.019
KHOS-NP, 0.00051 µM	1.03 ± 0.029
KHOS-NP, 0.00152 µM	1.04 ± 0.026
KHOS-NP, 0.00457 µM	1.04 ± 0.015
KHOS-NP, 0.01372 µM	1.05 ± 0.037
KHOS-NP, 0.04115 µM	1.04 ± 0.027
KHOS-NP, 0.1235 µM	1.06 ± 0.034
KHOS-NP, 0.3704 µM	1.05 ± 0.017
KHOS-NP, 1.111 µM	1.05 ± 0.035
KHOS-NP, 3.333 µM	1.04 ± 0.049
KHOS-NP, 10 µM	1.02 ± 0.038
RD-ES, 0.00017 µM	0.972 ± 0.016
RD-ES, 0.00051 µM	0.981 ± 0.023
RD-ES, 0.00152 µM	0.986 ± 0.033
RD-ES, 0.00457 µM	0.965 ± 0.03
RD-ES, 0.01372 µM	0.968 ± 0.025
RD-ES, 0.04115 µM	0.9621 ± 0.0066
RD-ES, 0.1235 µM	0.958 ± 0.027
RD-ES, 0.3704 µM	0.952 ± 0.03
RD-ES, 1.111 µM	0.936 ± 0.019
RD-ES, 3.333 µM	0.884 ± 0.037
RD-ES, 10 µM	0.867 ± 0.059
SK-ES-1, 0.00017 µM	0.964 ± 0.035
SK-ES-1, 0.00051 µM	0.979 ± 0.019
SK-ES-1, 0.00152 µM	0.986 ± 0.023
SK-ES-1, 0.00457 µM	0.974 ± 0.022
SK-ES-1, 0.01372 µM	1.03 ± 0.032
SK-ES-1, 0.04115 µM	0.973 ± 0.032
SK-ES-1, 0.1235 µM	1.02 ± 0.047
SK-ES-1, 0.3704 µM	0.985 ± 0.026
SK-ES-1, 1.111 µM	0.92 ± 0.015
SK-ES-1, 3.333 µM	0.916 ± 0.019
SK-ES-1, 10 µM	0.74 ± 0.018
SK-LMS-1, 0.00017 µM	0.941 ± 0.02
SK-LMS-1, 0.00051 µM	0.942 ± 0.05
SK-LMS-1, 0.00152 µM	0.932 ± 0.029
SK-LMS-1, 0.00457 µM	0.957 ± 0.023
SK-LMS-1, 0.01372 µM	0.938 ± 0.027
SK-LMS-1, 0.04115 µM	0.988 ± 0.013
SK-LMS-1, 0.1235 µM	0.921 ± 0.016
SK-LMS-1, 0.3704 µM	0.995 ± 0.023
SK-LMS-1, 1.111 µM	0.984 ± 0.044
SK-LMS-1, 3.333 µM	0.883 ± 0.032
SK-LMS-1, 10 µM	0.858 ± 0.061
SW684, 0.00017 µM	1.1 ± 0.018
SW684, 0.00051 µM	1.09 ± 0.054
SW684, 0.00152 µM	1.08 ± 0.037
SW684, 0.00457 µM	1.03 ± 0.038
SW684, 0.01372 µM	1.04 ± 0.069
SW684, 0.04115 µM	1.05 ± 0.056
SW684, 0.1235 µM	1.09 ± 0.043
SW684, 0.3704 µM	1.08 ± 0.018
SW684, 1.111 µM	1.13 ± 0.082
SW684, 3.333 µM	1.09 ± 0.068
SW684, 10 µM	1.02 ± 0.012
SW872, 0.00017 µM	0.926 ± 0.028
SW872, 0.00051 µM	0.924 ± 0.054
SW872, 0.00152 µM	0.968 ± 0.065
SW872, 0.00457 µM	0.951 ± 0.052
SW872, 0.01372 µM	0.939 ± 0.02
SW872, 0.04115 µM	0.963 ± 0.061
SW872, 0.1235 µM	0.921 ± 0.015
SW872, 0.3704 µM	0.977 ± 0.042
SW872, 1.111 µM	0.9644 ± 0.0077
SW872, 3.333 µM	0.974 ± 0.047
SW872, 10 µM	0.988 ± 0.012
SW982, 0.00017 µM	1.013 ± 0.0057
SW982, 0.00051 µM	0.995 ± 0.019
SW982, 0.00152 µM	0.991 ± 0.02
SW982, 0.00457 µM	1.03 ± 0.04
SW982, 0.01372 µM	0.992 ± 0.016
SW982, 0.04115 µM	1.03 ± 0.051
SW982, 0.1235 µM	0.992 ± 0.018
SW982, 0.3704 µM	1.03 ± 0.04
SW982, 1.111 µM	1.03 ± 0.023
SW982, 3.333 µM	1.01 ± 0.065
SW982, 10 µM	0.9846 ± 0.0093
VA-ES-BJ, 0.00017 µM	1.03 ± 0.029
VA-ES-BJ, 0.00051 µM	1.01 ± 0.026
VA-ES-BJ, 0.00152 µM	1 ± 0.02
VA-ES-BJ, 0.00457 µM	1.02 ± 0.017
VA-ES-BJ, 0.01372 µM	1.02 ± 0.015
VA-ES-BJ, 0.04115 µM	1.03 ± 0.025
VA-ES-BJ, 0.1235 µM	1.04 ± 0.011
VA-ES-BJ, 0.3704 µM	1.03 ± 0.043
VA-ES-BJ, 1.111 µM	1.04 ± 0.026
VA-ES-BJ, 3.333 µM	0.999 ± 0.072
VA-ES-BJ, 10 µM	0.968 ± 0.073
